Measured values: ChEMBL document CHEMBL4622861, “Synthesis and biological evaluation of 6-nitro-1,2,4-triazoloazines containing polyphenol fragments possessing antioxidant and antiviral activity” (Bioorg Med Chem Lett, 2020)
Activity calls are given as the source filed them. The calls are words filed in the database; no cut-off is given here.

Assays:
[1] = tested on: M2 proton channel of Influenza A virus; assay: Selectivity index, ratio of CC50 for MDCK cells to IC50 for M2 proton channel in Influenza A virus (A/Puerto Rico/8/34(H1N1) ) infected in MDCK cells assessed as inhibition of viral infection; format: toxicity, cell-based; conditions: dog, read-out: Ratio CC50/IC50
[2] = Cytotoxicity against MDCK cells; format: cell-based, Canis lupus familiaris; conditions: dog
[3] = Inhibition of M2 proton channel in Influenza A virus (A/Puerto Rico/8/34(H1N1)) infected in MDCK cells assessed as inhibition of viral infection; format: cell-based, Influenza A virus (A/Puerto Rico/8/1934(H1N1))
[4] = Antioxidant activity in K3[Fe(CN)6]/K4[Fe(CN)6] system by potentiometric method; format: functional
Influenza A virus [5] = assay: Antiviral activity against Influenza A virus (A/Puerto Rico/8/34(H1N1)) infected in MDCK cells assessed as reduction in viral titer at 50 uM measured after 4 hrs post-infection; format: functional, organism-based; conditions: A/Puerto Rico/8/1934(H1N1)
Influenza A virus [6] = assay: Antiviral activity against Influenza A virus (A/Puerto Rico/8/34(H1N1)) infected in MDCK cells assessed as reduction in viral titer at 100 uM measured at 0 to 2 hrs post-infection; format: functional, organism-based; conditions: A/Puerto Rico/8/1934(H1N1)
Influenza A virus [7] = assay: Antiviral activity against Influenza A virus (A/Puerto Rico/8/34(H1N1)) infected in MDCK cells assessed as reduction in viral titer at 100 uM measured at 0 to 8 hrs post-infection; format: functional, organism-based; conditions: A/Puerto Rico/8/1934(H1N1)
[8] = target: Hemagglutinin (Influenza A virus (A/Puerto Rico/8/1934(H1N1))) (UniProt P03452); assay: Inhibition of Hemagglutinin in Influenza A virus (A/Puerto Rico/8/34(H1N1)) assessed as reduction in virus-induced agglutination of chicken erythrocytes at 100 uM
Influenza A virus [9] = assay: Antiviral activity against Influenza A virus (A/Puerto Rico/8/34(H1N1)) infected in MDCK cells assessed as reduction in viral titer at 50 uM measured at 0 to 2 hrs post-infection; format: functional, organism-based; conditions: A/Puerto Rico/8/1934(H1N1)
Influenza A virus [10] = assay: Antiviral activity against Influenza A virus (A/Puerto Rico/8/34(H1N1)) infected in MDCK cells assessed as reduction in viral titer at 100 uM measured after 4 hrs post-infection; format: functional, organism-based; conditions: A/Puerto Rico/8/1934(H1N1)
[11] = target: Hemagglutinin (Influenza A virus (A/Puerto Rico/8/1934(H1N1))) (UniProt P03452); assay: Inhibition of Hemagglutinin in Influenza A virus (A/Puerto Rico/8/34(H1N1)) assessed as reduction in virus-induced agglutination of chicken erythrocytes at 50 uM
Influenza A virus [12] = assay: Antiviral activity against Influenza A virus (A/Puerto Rico/8/34(H1N1)) infected in MDCK cells assessed as reduction in viral titer at 50 uM measured at 0 to 8 hrs post-infection; format: functional, organism-based; conditions: A/Puerto Rico/8/1934(H1N1)

Hemagglutinin (Influenza A virus (A/Puerto Rico/8/1934(H1N1))), sequence (P03452 whole entry): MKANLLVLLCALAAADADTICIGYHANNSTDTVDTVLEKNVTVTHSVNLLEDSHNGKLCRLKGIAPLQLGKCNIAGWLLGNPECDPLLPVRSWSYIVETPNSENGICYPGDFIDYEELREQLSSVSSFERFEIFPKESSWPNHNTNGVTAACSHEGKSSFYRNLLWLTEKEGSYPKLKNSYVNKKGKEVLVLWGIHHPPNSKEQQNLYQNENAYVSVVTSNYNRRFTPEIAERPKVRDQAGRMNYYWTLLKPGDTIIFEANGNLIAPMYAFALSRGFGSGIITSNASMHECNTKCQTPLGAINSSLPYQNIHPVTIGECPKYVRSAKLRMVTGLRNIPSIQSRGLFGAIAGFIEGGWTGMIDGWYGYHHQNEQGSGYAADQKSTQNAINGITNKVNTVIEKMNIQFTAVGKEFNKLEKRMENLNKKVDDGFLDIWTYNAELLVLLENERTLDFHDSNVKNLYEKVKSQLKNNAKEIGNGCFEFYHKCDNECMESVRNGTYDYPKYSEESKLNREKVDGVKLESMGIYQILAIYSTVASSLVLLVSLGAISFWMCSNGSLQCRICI

Row | SMILES | selectivity ratio [1] | CC50 [2] [µM] | IC50 [3] [µM] | other results
1 | O=[N+]([O-])C1=CNc2nc(-c3ccco3)nn2C1c1ccc(O)cc1O (configuration not stated) | 14 | 119 | 9 | 
2 | CSc1nc2n(n1)C(c1c(O)cc(O)cc1O)C([N+](=O)[O-])=NN2 (configuration not stated) | 39 | 877 | 23 | 
3 | O=[N+]([O-])C1=CNc2nc(C(F)(F)F)nn2C1c1ccc(O)c(O)c1 (configuration not stated) | 57 | 1200 | 21 | 
4 | CSc1nc2n(n1)C(c1ccc(O)cc1O)C([N+](=O)[O-])=NN2 (configuration not stated) | 11 | 201 | 18 | Activity [4]: inactive
5 | O=[N+]([O-])C1=CNc2ncnn2C1c1ccc(O)c(O)c1O (configuration not stated) | 1 | 405 | 595 | 
6 | O=[N+]([O-])C1=NNc2nc(C(F)(F)F)nn2C1c1ccc(O)c(O)c1 (configuration not stated) | 2 | 183 | > 120 | 
7 | O=[N+]([O-])C1=NNc2nc(C(F)(F)F)nn2C1c1c(O)cc(O)cc1O (configuration not stated) | 9 | 252 | 27 | 
8 | O=[N+]([O-])C1=CNc2nc(-c3ccco3)nn2C1c1ccc(O)c(O)c1 (configuration not stated) | > 12 | > 1200 | 101 | 
9 | O=[N+]([O-])C1=NNc2ncnn2C1c1ccc(O)c(O)c1 (configuration not stated) | 2 | > 1640 | 1090 | 
10 | O=[N+]([O-])C1=CNc2ncnn2C1c1ccc(O)c(O)c1 (configuration not stated) | 9 | 368 | 42 | 
11 | O=[N+]([O-])C1=NNc2ncnn2C1O (configuration not stated) | 2 | 87 | > 36 | 
12 | CSc1nc2n(n1)C(O)C([N+](=O)[O-])=NN2 (configuration not stated) | 7 | 99 | 15 | 
13 | O=[N+]([O-])C1=CNc2nc(-c3ccco3)nn2C1 | 13 | 108 | 9 | 
14 | O=[N+]([O-])C1=CNc2nc(C(F)(F)F)nn2C1c1c(O)cc(O)cc1O (configuration not stated) | 32 | 838 | 27 | 
15 | O=[N+]([O-])C1=NNc2ncnn2C1c1c(O)cc(O)cc1O (configuration not stated) | 5 | 119 | 26 | 
16 | CCC(CC)O[C@@H]1C=C(C(=O)O)C[C@H](N)[C@H]1NC(C)=O [OSELTAMIVIR CARBOXYLATE] | 5 | 66 | 13 | 

Row | SMILES | selectivity ratio [1] | CC50 [2] [µM] | IC50 [3] [µM] | other results
17 | O=[N+]([O-])C1=CNc2nc(-c3ccco3)nn2C1c1ccc(O)c(O)c1O (configuration not stated) | 3 | 317 | 97 | 
18 | CC(N)C12CC3CC(CC(C3)C1)C2 (configuration not stated) [RIMANTADINE] | > 667 | > 200 | 0.3 | 
19 | O=[N+]([O-])C1=NNc2ncnn2C1c1ccc(O)cc1O (configuration not stated) | 3 | 90 | 34 | Activity [4]: inactive
20 | O=[N+]([O-])C1=NNc2nc(C(F)(F)F)nn2C1c1ccc(O)cc1O (configuration not stated) | 3 | 108 | 33 | 
21 | O=[N+]([O-])C1=CNc2ncnn2C1c1ccc(O)cc1O (configuration not stated) | > 7 | > 1090 | 167 | 
22 | O=[N+]([O-])C1=CNc2ncnn2C1c1c(O)cc(O)cc1O (configuration not stated) | > 51 | > 1030 | 20 | Activity (Influenza A virus [5]): Active; Activity (Influenza A virus [6]): Active; Activity (Influenza A virus [7]): Active; inhibition [8]: Active
23 | O=[N+]([O-])C1=NNc2nc(C(F)(F)F)nn2C1c1ccc(O)c(O)c1O (configuration not stated) | 7 | 67 | 10 | 
24 | O=[N+]([O-])C1=CNc2nc(C(F)(F)F)nn2C1c1ccc(O)cc1O (configuration not stated) | 43 | 258 | 6 | 
25 | CSc1nc2n(n1)C(c1ccc(O)c(O)c1)C([N+](=O)[O-])=NN2 (configuration not stated) | 8 | 362 | 44 | Activity (Influenza A virus [9]): Active; Activity (Influenza A virus [10]): Active; inhibition [11]: Active; Activity (Influenza A virus [12]): Active
26 | O=[N+]([O-])C1=NNc2ncnn2C1c1ccc(O)c(O)c1O (configuration not stated) | 3 | 228 | 86 | 
27 | O=[N+]([O-])C1=CNc2nc(C(F)(F)F)nn2C1O (configuration not stated) | 3 | 33 | 11 | 
28 | O=[N+]([O-])C1=CNc2nc(C(F)(F)F)nn2C1c1ccc(O)c(O)c1O (configuration not stated) | 8 | 373 | 47 | 
29 | CSc1nc2n(n1)C(c1ccc(O)c(O)c1O)C([N+](=O)[O-])=NN2 (configuration not stated) | 8 | 196 | 26 | Activity [4]: inactive
30 | O=[N+]([O-])C1=CNc2nc(-c3ccco3)nn2C1c1c(O)cc(O)cc1O (configuration not stated) | 4 | 280 | 70 | 
31 | O=[N+]([O-])C1=CNc2ncnn2C1O (configuration not stated) | 4 | 123 | 28 | 
32 | O=[N+]([O-])C1=NNc2nc(C(F)(F)F)nn2C1O (configuration not stated) | 4 | 40 | 11 | 
